The target in this assay is T1, human GPR40 (Homo sapiens, UniProt O14842).
T1 construct: expressed in transfected cells
Nature of the assay: Inositol Phosphate Turnover (IP1) Assay 2. In kind it is cell-based. As to the method:
Human GPR40 stable cell-lines were generated in HEK cells. The expression plasmids were transfected using lipofectamine (Life Technologies) following manufacturer's instructions. Stable cell-lines were generated following drug selection and single cell cloning.
The assay is performed in 384-well format. HEK cells stably expressing human GPR40 are plated at 15,000 cells per well in growth medium (DMEM/10% fetal calf serum). Cell plates are then incubated 16 hours at 37 degrees in a 5% CO2 incubator.
Measurement of Inositol Phosphate Turnover (IP1) is performed using the CisBio IP-One kit (Part number 62IPAPEB). After the 16 hour incubation, the cells are washed with HEPES buffer and 10 ul of stimulation buffer (prepared as described in the kit) is added to each well. In a separate plate, compounds are diluted in DMSO (400-fold over the final concentration in the assay well) and 25 nl is acoustically transferred to the appropriate well in the assay cell plate. The plates are then incubated for 60 minutes at 37 degrees. 10 ul of detection buffer (also prepared as described in the IP-One kit) is added to each well and the plates are incubated for 60 minutes in the dark. The plates are then read in a Perkin Elmer EnVision or equivalent reader able to measure FRET. Fluorescent ratio of emission at 665 and 620 nm is then converted to IP1 concentration by back calculating from an IP1 standard curve prepared at the time of the assay.

[1] abbreviates: HEK cells stably expressing human GPR40, 15,000 cells per well, CisBio IP-One kit, read-out: Human IP1 (nM), Inositol Phophate Turnover (IP1) Assay 2 EC50 values.
The mark [2] stands for this setting: HEK cells stably expressing human GPR40, read-out: EC50 values in the Inositol Phophate Turnover (IP1) Assay 2.

SMILES strings stand for the structures. Like-named read-outs stand apart in the source and are kept apart here. A value given as a limit tells only on which side of the number the result lay.

T1 sequence (O14842 whole entry): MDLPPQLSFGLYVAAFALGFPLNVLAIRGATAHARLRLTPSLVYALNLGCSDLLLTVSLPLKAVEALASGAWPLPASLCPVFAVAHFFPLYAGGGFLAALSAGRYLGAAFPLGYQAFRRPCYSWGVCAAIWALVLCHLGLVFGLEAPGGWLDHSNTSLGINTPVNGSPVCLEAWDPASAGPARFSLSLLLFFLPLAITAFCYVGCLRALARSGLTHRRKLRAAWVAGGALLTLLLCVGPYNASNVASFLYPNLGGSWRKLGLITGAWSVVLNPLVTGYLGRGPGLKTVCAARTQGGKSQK

On to `C[C@H](C(=O)O)[C@H](c1ccc2c(c1)OC(C1CC3(C1)CN(c1ncccc1C(F)(F)F)C3)CC2)C1CC1` (single isomer, unassigned) [Example 1, (2S,3R)-3-cyclopropyl-2-methyl-3-((R or S)-2-(2-(3-(trifluoro-methyl)pyridin-2-yl)-2-azaspiro[3.3]heptan-6-yl)chroman-7-yl)propanoic Acid], for which the EC50 by setting is: under setting [1], 141 nM; under setting [2], less than 6500 nM.

Turning to `C[C@H](C(=O)O)[C@H](c1ccc2c(c1)OC(C1CC3(C1)CN(c1ncccc1C(F)(F)F)C3)CC2)C1CC1` (single isomer, unassigned) [Example 2, (2S,3R)-3-cyclopropyl-2-methyl-3-((R or S)-2-(2-(3-(trifluoromethyl)pyridin-2-yl)-2-azaspiro[3.3]heptan-6-yl)chroman-7-yl)propanoic Acid], under setting [1], the EC50 turned out to be 156 nM. Consider `C[C@H](C(=O)O)[C@H](c1ccc2c(c1)OC(C1[C@@H]3COC[C@H]1CN(Cc1cc(C(F)(F)F)ccc1C(F)(F)F)C3)CC2)C1CC1` (stereo partly drawn) [Example 40, (2S,3R)-3-(2-((1R,5S)-7-(2,5-bis(trifluoromethyl)benzyl)-3-oxa-7-azabicyclo[3.3.1]nonan-9-yl)chroman-7-yl)-3-cyclopropyl-2-methylpropanoic acid], for which the EC50 is 38.5 nM under setting [1] and less than 6500 nM under setting [2].

Values taken from patent US11072602B2, “Antidiabetic heterocyclic compounds” (Merck Sharp & Dohme Corp., priority 2016, dated 2021).
